In patent US9737077B2, “Method for controlling sexuality of hop” (priority 2011, dated 2017):
Entries after “also recorded” stand apart in the source; their conditions may differ. Like-named read-outs stand apart in the source and are kept apart here.

Assays:
[1] = tested on: hop variety Kirin No. 2 (female plant); test: Forming a male flower on a female plant bred in a greenhouse (Part 3), different chemicals
Method: An over-wintering plant or strain of the hop variety “Kirin No. 2” was cultivated in the same manner as in Example 2.
Silver thiosulfate (STS) was prepared by mixing sodium thiosulfate pentahydrate and silver nitrate in a molar ratio of 8:1. An area to which water was applied was arranged as a control area.
Flower buds were observed from the beginning of July and the sexuality was determined from the mid-July.

[2] = tested on: female plant of Momordica dioica; details: Non Patent Literature 7; cited from earlier work
Cannabis sativa = details: cited from earlier work
hop female plant = details: spraying 500 ppm (Non Patent Literature 1); cited from earlier work

Compound: O=[N+]([O-])[O-].[Ag+] [silver nitrate]
- flower sexuality observed ([1]; 8 mM, leaf application 4 times about every 10 days, greenhouse): the female flowers were predominantly observed but the male flowers were observed in part; also recorded: female flowers and male flowers
- flower sexuality observed ([1]; 16 mM, leaf application 4 times about every 10 days, greenhouse): male flowers were observed; also recorded: male flowers formed
- flower sexuality observed ([1]; 32 mM, leaf application 4 times about every 10 days, greenhouse): male flowers were observed; also recorded: male flowers formed
- condition of applied leaves and growth ([1]; all treated areas (all concentrations applied), greenhouse): the applied leaves were partially browned but continued growing
- flower formed on female plant [2]: a hermaphrodite flower is formed
- flowers formed on main and lateral branches (Cannabis sativa; applied to a growing shoot tip (Non Patent Literature 8)): an intersex flower, an incomplete male flower with few stamens or a complete male flower, together with female flowers, were formed

Compound: CC(Sc1ccccc1Cl)C(=O)[O-].[Na+] (stereo not drawn) [α (2-chlorophenylthio)propionic acid, sodium salt]
- flower formed on hop female plant (hop female plant): a male flower was formed

Compound: silver thiosulfate complex [STS]
- condition of applied leaves and growth ([1]; in vivo): the applied leaves were partially browned but continued growing
- flower sexuality observed ([1]; in vivo): the female flowers were predominantly observed but the male flowers were observed in part; also recorded: male flowers formed; also recorded: female flowers and male flowers
- flowers formed on main and lateral branches (Cannabis sativa; in vivo): an intersex flower, an incomplete male flower with few stamens or a complete male flower, together with female flowers, were formed
